Assay [1] has as its target T1, E. histolytica pantothenate kinase (Entamoeba histolytica, UniProt B1N2P3). Description: Phosphoryl donor specificity of EhPanK. In kind it is biochemical. The conditions noted are these: donor 100 μM, 0.2 mM pantothenate, 10 mM MgCl2, 37 °C, pH 6; relative to ATP; ND = not detected. From the text: EhPanK utilized various nucleoside triphosphates, ATP, CTP, GTP, UTP, dATP, and polyphosphates, as well as deoxynucleotides as phosphoryl donors, with ATP being the best phosphate donor (Table 2).

For assay [2], the target named is T1, E. histolytica pantothenate kinase. In kind it is biochemical.
Assay [3] has as its target E. histolytica PanK (EhPanK) recombinant enzyme (Entamoeba histolytica, UniProt B1N2P3). Put plainly: biochemical. As to the method: We screened 244 compounds from the Kitasato Natural Products Library for inhibition of EhPanK activity. Initially, each compound was dissolved in 50% DMSO and water at a final concentration of 1 mg/mL. Enzymatic reactions were carried out on a black 384-well microtiter plate with a 20 μL reaction mixture composed of 19 μl enzyme mix (100 μM pantothenate, 100 μM ATP, 50 ng of EhPanK recombinant enzyme in kinase buffer (see above) and 1 μl of the individual compounds (final concentration 50 μg/mL or 25–200 μM) at 37 °C for 2 h. After the kinase reaction, ADP was measured using ADP Hunter™ Plus kinase assay kit as described previously. Inhibition values were measured in triplicate.
Fig. S8. Dose-response data of inhibitors against EhPanK inhibitors. IC50 values were determined by dose-response-inhibition using GraphPad Prism (GraphPad Software Inc., San Diego, USA). Data are shown in mean of three replicates.

The test system of assay [4] is E. histolytica trophozoite (HM-1:IMSS cl6). Description: Anti-amebic activity, trophozoite viability (WST-1, 48 h). In kind it is cell-based, Entamoeba histolytica. Particulars: HM-1:IMSS cl6 trophozoites, anaerobic, 35.5 °C, mean ± SEM. On the procedure:
Approximately 1 × 10^4 trophozoites of E. histolytica clonal strain HM-1:IMSS cl6 in 200 μl of BI-S-33 medium were dispensed into each well of a 96-well plate and incubated at 35.5 °C for 2 h. Medium was then removed and replaced with 200 μl of BI-S-33 medium that contained various concentrations of each compound. […] The plate was incubated under anaerobic conditions at 35.5 °C for 48 h. After the medium was removed, 100 μl of pre-warmed Opti-MEM I (Life Technologies, Grand Islands, NY, USA) containing one-tenth volume of WST-1 (Roche, Mannheim, Germany) was added. The viability of trophozoites was estimated by measuring absorbance at 450 nm by SpectraMax® Paradigm® (Molecular Devices, CA, USA). Metronidazole was used as positive control at final concentrations of 0.1–10 μM and 0.5% DMSO as negative control. Each assay was performed in triplicate. IC50 values were calculated by least squares curve fitting of the dose inhibition curves using GraphPad Prism (GraphPad Software Inc., San Diego, USA).

In assay [5] the test system is MRC-5 cells (human fibroblast). Description: Cytotoxicity against MRC-5 cells (WST-8, 48 h). In kind it is cell-based. The conditions noted are these: MRC5, MRC-5, 48 h, mean ± SEM, read-out: IC50 Normal human cell (MRC-5). As to the method:
Human fibroblast cells, MRC-5, were cultured on 96-well flat bottom plates at a density of 1.5 × 10^4 cells/well with 100 μl of MEM medium (Life Technologie) containing 10% fetal bovine serum (Hana-nesco Bio, Tokyo, Japan) and 1% penicillin-streptomycin (Life Technologies). Cells were incubated at 37 °C with 5% CO2 for 48 h. Approximately 100 μl of MEM medium containing 5 μl of each compound dissolved in 50% DMSO in water were added to each well. After the plates were incubated for 48 h, approximately 10 μl of WST-8 (Dojindo, Kumamoto, Japan) was added to each well and the plate was incubated at 37 °C with 5% CO2 for 2 h. The absorbance was measured at 450 nm by spectrophotometer (SH-9000Lab, Corona Electric, Ibaraki, Japan). Growth of MRC-5 cells was measured in duplicate. Staurosporine (Kitasato Natural Products Library) was used as a positive (cytotoxic) control in a concentration range of 0.5 pM to 0.1 nM IC50 values were calculated as described previously.
In general terms: Formazan colour is commonly taken as a measure of viable cells.

The mark [6] stands for this setting: cation 5 mM, 0.2 mM pantothenate, 37 °C, pH 6.0, relative to MgCl2, ND = not detected.
Where [7] appears, read: recombinant EhPanK, 100 μM pantothenate, 100 μM ATP, 37 °C, 2 h, mean ± SEM of three replicates, read-out: IC50 against EhPanK activity.

Where two headings read alike, the source gives them in different places. A value given as a limit tells only on which side of the number the result lay.

T1 sequence (B1N2P3 entry or part of it): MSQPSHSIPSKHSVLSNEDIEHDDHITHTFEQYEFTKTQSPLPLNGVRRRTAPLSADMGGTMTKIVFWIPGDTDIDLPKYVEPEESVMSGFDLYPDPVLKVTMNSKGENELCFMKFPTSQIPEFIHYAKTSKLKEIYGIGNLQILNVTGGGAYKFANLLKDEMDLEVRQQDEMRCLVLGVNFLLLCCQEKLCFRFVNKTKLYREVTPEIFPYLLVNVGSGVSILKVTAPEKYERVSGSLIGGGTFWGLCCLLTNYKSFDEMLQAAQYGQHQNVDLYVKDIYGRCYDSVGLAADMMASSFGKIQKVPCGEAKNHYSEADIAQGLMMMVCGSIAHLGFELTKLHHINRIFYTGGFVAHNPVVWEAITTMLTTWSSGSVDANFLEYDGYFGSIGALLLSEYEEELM
Chain of E. histolytica PanK (EhPanK) recombinant enzyme (B1N2P3 entry or part of it): as above

With `Nc1ncnc2c1ncn2[C@@H]1O[C@H](COP(=O)(O)OP(=O)(O)OP(=O)(O)O)[C@@H](O)[C@H]1O` [ATP], the “Relative activity (phosphoryl donor)” value in assay [1] came to 100.0 ± 4.1%.
`Nc1ccn([C@@H]2O[C@H](COP(=O)(O)OP(=O)(O)OP(=O)(O)O)[C@@H](O)[C@H]2O)c(=O)n1` [CTP]: the “Relative activity (phosphoryl donor)” value in assay [1] stood at 1.4 ± 0.2%.
Take `[Ca+2].[Cl-].[Cl-]` [CaCl2]: in assay [2] (setting [6]), the “Relative activity (metal)” value is 17.0 ± 3.0%.
As for `O=C(Cc1cccs1)N[C@@H]1C(=O)N2C(C(=O)[O-])=C(C[n+]3ccccc3)CS[C@H]12` [Cephaloridine], the figures for the IC50 in assay [3] (setting [7]), in assay [4] (Entamoeba histolytica) and in assay [5] were 230 ± 10.1 µM, 246 ± 34.9 µM and 48.2 ± 3.61 µM, respectively.
As for `[Cl-].[Cl-].[Co+2]` [CoCl2], in assay [2] (pH 6), the “Relative activity (metal)” value is given as 74.2 ± 6.1%.
Regarding `[Cl][Cu][Cl]` [CuCl2], the “Relative activity (metal)” value in assay [2] (setting [6]) stood at 84.3 ± 4.7%.
Regarding `CS[C@H]1SC[C@H]2C(=O)N(C)[C@@H](C(C)C)C(=O)OC[C@@H](NC(=O)c3cnc4ccccc4n3)C(=O)N[C@@H](C)C(=O)N(C)[C@@H]1C(=O)N(C)[C@@H](C(C)C)C(=O)OC[C@@H](NC(=O)c1cnc3ccccc3n1)C(=O)N[C@@H](C)C(=O)N2C` [Echinomycin], the results for the IC50 in assay [3] (setting [7]) and in assay [5] were 77.8 ± 4.4 µM and below 0.38 µM, respectively.
On to `CC[C@H]1OC(=O)[C@H](C)[C@@H](O[C@H]2C[C@@](C)(OC)[C@@H](O)[C@H](C)O2)[C@H](C)[C@@H](O[C@@H]2O[C@H](C)C[C@H](N(C)C)[C@H]2O)[C@](C)(O)C[C@@H](C)C(=O)[C@H](C)[C@@H](O)[C@]1(C)O` [Erythromycin A], for which the half-inhibitory concentration (IC50) in assay [3] (setting [7]) is 131 ± 6 µM; in assay [4] (Entamoeba histolytica) it was 156 ± 20.6 µM; in assay [5], above 136 µM.
`[Cl][Fe][Cl]` [FeCl2]: in assay [2] (setting [6]), the “Relative activity (metal)” value came to 72.8 ± 1.7%.
For `O=C1OC2(OC=C(c3ccccc3)C2=O)c2ccccc21` (stereo not drawn) [Fluorescamine], the half-maximal inhibitory concentration (IC50) amounted to 346 ± 14.7 µM in assay [3] (read-out: IC50 against EhPanK activity), 168 ± 20.1 µM in assay [4] (Entamoeba histolytica) and 288 ± 17.8 µM in assay [5].
As for `Nc1nc2c(ncn2[C@@H]2O[C@H](COP(=O)(O)OP(=O)(O)OP(=O)(O)O)[C@@H](O)[C@H]2O)c(=O)[nH]1` [GTP], the “Relative activity (phosphoryl donor)” value in assay [1] is given as 78.8 ± 4.9%.
For the compound `CC(=O)[C@H]1O[C@@H](Oc2ccc(/C=C(\C)C(=O)N[C@@H]3[C@H](O)[C@@H](O)[C@H]4OCO[C@H]4[C@@H]3O)cc2O)[C@@H](O)[C@@H]1O` [Hygromycin A], the IC50 in assay [3] (setting [7]) is 194 ± 17.8 µM; in assay [4] (Entamoeba histolytica) it was 142 ± 16.3 µM; in assay [5], above 196 µM.
`C[C@H]1O[C@H](O[C@H]2[C@H](O)[C@@H](O)[C@@H](O)[C@H](O)[C@@H]2O)[C@@H](N)C[C@@H]1NC(=N)C(=O)O` [Kasugamycin]: the IC50 in assay [3] was 254 ± 4.7 µM; in assay [4] (Entamoeba histolytica), 66.2 ± 13.7 µM; in assay [5] it was 87.1 ± 7.22 µM.
Take `Cc1ncc([N+](=O)[O-])n1CCO` [Metronidazole]: the results for the IC50 in assay [4] (Entamoeba histolytica) and in assay [5] were 0.66 ± 0.05 µM and above 100 µM, respectively.
Regarding `[Cl-].[Cl-].[Mg+2]` [MgCl2], the “Relative activity (metal)” value in assay [2] (setting [6]) came to 100.0 ± 0.0%.
Take `[Cl][Mn][Cl]` [MnCl2]: the “Relative activity (metal)” value in assay [2] (setting [6]) is given as 83.2 ± 2.0%.
For the compound `NC[C@@H]1O[C@H](O[C@H]2[C@@H](O)[C@H](O[C@@H]3[C@@H](O)[C@H](N)C[C@H](N)[C@H]3O[C@H]3O[C@H](CN)[C@@H](O)[C@H](O)[C@H]3N)O[C@@H]2CO)[C@H](N)[C@@H](O)[C@@H]1O` [Neomycin], the half-inhibitory concentration (IC50) in assay [3] (setting [7]) was 147 ± 6.8 µM; in assay [4] (Entamoeba histolytica), below 20 µM; in assay [4], 10.6 ± 1.12 µM; in assay [5], above 163 µM.
Consider `COc1cccc2c1C(=O)C1=C(C[C@@H](CC(=O)O)O[C@@H]1C)C2=O` [O-methylnanaomycin A], for which the concentration for half-maximal inhibition (IC50) in assay [3] (setting [7]) came to 284 ± 28.7 µM; in assay [5], 19 ± 0.49 µM.
`CCC1OC(=O)CC(O)C(C)C(O[C@@H]2O[C@H](C)C[C@H](N(C)C)[C@H]2O)C(CC=O)CC(C)C(=O)/C=C/C2(C)OC2C1C` (stereo partly drawn) [Rosamycin]: the half-inhibitory concentration (IC50) in assay [3] (setting [7]) came to 166 ± 2 µM; in assay [4] (Entamoeba histolytica), 56.3 ± 11.7 µM; in assay [5], 34.4 ± 2.71 µM.
On the same counts, the results for `[H]/N=C(/N)N[C@H]1[C@H](O)[C@@H](O)[C@H](O[C@@H]2O[C@@H](C)[C@](O)(C=O)[C@H]2O[C@@H]2O[C@@H](CO)[C@H](O)[C@@H](O)[C@@H]2NC)[C@@H](N/C(N)=N\[H])[C@@H]1O` [Streptomycin] are 155 ± 10.1 µM, 77.5 ± 1.52 µM and above 172 µM.
As to `Cc1cn([C@H]2C[C@H](O)[C@@H](COP(=O)(O)OP(=O)(O)OP(=O)(O)O)O2)c(=O)[nH]c1=O` [TTP], the “Relative activity (phosphoryl donor)” value in assay [1] came out at 5.4 ± 1.9%.
In the case of `CCCCC/C=C\CCC(=O)N[C@H]1[C@H](Oc2c3cc4cc2Oc2ccc(cc2Cl)[C@@H](O[C@@H]2O[C@H](CO)[C@@H](O)[C@H](O)[C@H]2NC(C)=O)[C@@H]2NC(=O)[C@H](NC(=O)[C@@H]4NC(=O)[C@H]4NC(=O)[C@@H](Cc5ccc(c(Cl)c5)O3)NC(=O)[C@H](N)c3ccc(O)c(c3)Oc3cc(O)cc4c3)c3ccc(O)c(c3)-c3c(O[C@H]4O[C@H](CO)[C@@H](O)[C@H](O)[C@@H]4O)cc(O)cc3[C@@H](C(=O)O)NC2=O)O[C@H](CO)[C@@H](O)[C@@H]1O` [Teicoplanin], the IC50 in assay [3] (read-out: IC50 against EhPanK activity, recombinant EhPanK, 100 μM pantothenate, 100 μM ATP, 37 °C, 2 h, mean ± SEM of three replicates) is 26.3 ± 2.6 µM.
For the compound `CC(/C=C/C(O)=C1/C(=O)CNC1=O)=C\C(C)C1OC2(C)OC(C(=O)C3OC32C)C1C` (stereo not drawn) [Tirandamycin A], the IC50 in assay [3] (setting [7]) was 229 ± 3.4 µM; in assay [4] (Entamoeba histolytica), below 20 µM; in assay [4], 13.7 ± 4.85 µM; in assay [5], 144 ± 3.8 µM.
Take `CC(/C=C/C(=O)NO)=C\[C@@H](C)C(=O)c1ccc(N(C)C)cc1` [Trichostatin]: the IC50 was 310 ± 14.9 µM in assay [3] (setting [7]) and 2.62 ± 0.49 µM in assay [5].
As for `O=P(O)(O)OP(=O)(O)OP(=O)(O)O` [Tripolyphosphate], the “Relative activity (phosphoryl donor)” value in assay [1] is reported as 16.9 ± 0.8%.
`O=c1ccn([C@@H]2O[C@H](COP(=O)(O)OP(=O)(O)OP(=O)(O)O)[C@@H](O)[C@H]2O)c(=O)[nH]1` [UTP]: the “Relative activity (phosphoryl donor)” value in assay [1] worked out at 16.6 ± 1.2%.
Regarding `[Cl-].[Cl-].[Zn+2]` [ZnCl2], the “Relative activity (metal)” value in assay [2] (setting [6]) came out at 3.9 ± 0.7%.
For `Nc1ncnc2c1ncn2[C@H]1C[C@H](O)[C@@H](COP(=O)(O)OP(=O)(O)OP(=O)(O)O)O1` [dATP], the “Relative activity (phosphoryl donor)” value in assay [1] came out at 19.3 ± 4.3%.
With LiCl2, the “Relative activity (metal)” value in assay [2] (setting [6]) was 34.5 ± 1.8%.
As to Polyphosphate, the “Relative activity (phosphoryl donor)” value in assay [1] is reported as 16.2 ± 2.5%.

A word on the IC50: it is the concentration at which inhibition is half-maximal.

The values above are taken from paper PMC6114107, “Characterization and validation of Entamoeba histolytica pantothenate kinase as a novel anti-amebic drug target” (International Journal for Parasitology: Drugs and Drug …, 2018).
